According to patent publication US11484562B2, “Composition for preventing or treating obesity comprising natural mixture extracts” (KOREA INSTITUTE OF ORIENTAL MEDICINE, priority 2018, dated 2022):

Assays:
[1] = tested on: high-fat diet-fed mice; test: Anti-obesity effect by repeated administration for 8 weeks in obesity model induced by high-fat diet; type: in vivo, C57BL/6 mice; details: HFD mice
Method: 6-week-old male C57BL/6 mice (Orient Bio) were used after being acclimated for one week. A high-fat diet was fed to induce obesity. D12451 (Calorie composition: 45% of fats, 35% of carbohydrates, and 20% of proteins, Research Diets, Inc.) was used as the high-fat diet, and Purina Rodent Chow was used as a normal diet. The mice were allowed to freely access feed and drinking water. The CMO1 mixture was administered together with the […] feed at a weight ratio of 0.1% (w/w) and 0.25% (w/w). Xenical™ (orlistat, Sigma, MO, USA), as a control drug, was administered together with the […] feed in a weight ratio of 0.1% (w/w). A daily dose of the CMO1 mixture, calculated based on an average daily feed intake, was 70 mg/kg/day in the case of 0.1%, and 190 mg/kg/day in the case of 0.25%, and a daily dose of Xenical™ was […]. Body weights and feed intakes were measured every week, and organs were excised and weighed in autopsy after 8 weeks and then stored at −80° C. In autopsy, blood was collected from the abdominal vein after laparotomy under deep anesthesia. The blood was stored in a cryogenic refrigerator according to analysis conditions and thawed immediately before initiating the experiment. Levels of total cholesterol, triglyceride, HDL cholesterol, and LDL cholesterol were analyzed using an automatic blood biochemistry analyzer (Hitachi, Japan). In order to analyze size changes in adipocytes and hepatocytes caused by accumulation of fats, the organ was immobilized with 10% neutralized formalin (Microme, USA) for 24 hours, embedded into paraffin blocks via a general tissue treatment process, and sectioned into 4 μm slices. The slices were hydrated and stained with hematoxylin and eosin (H&E). The stained tissue was observed using an optical microscope (BX51, Olympus, Japan) to measure sizes of cells. […] All measurement values of each experiment are expressed as mean±standard error. […]

[2] = molecular target: T1, pancreatic lipase (Homo sapiens, UniProt P16233); details: background statement; cited from earlier work
T1 sequence (P16233 17-465): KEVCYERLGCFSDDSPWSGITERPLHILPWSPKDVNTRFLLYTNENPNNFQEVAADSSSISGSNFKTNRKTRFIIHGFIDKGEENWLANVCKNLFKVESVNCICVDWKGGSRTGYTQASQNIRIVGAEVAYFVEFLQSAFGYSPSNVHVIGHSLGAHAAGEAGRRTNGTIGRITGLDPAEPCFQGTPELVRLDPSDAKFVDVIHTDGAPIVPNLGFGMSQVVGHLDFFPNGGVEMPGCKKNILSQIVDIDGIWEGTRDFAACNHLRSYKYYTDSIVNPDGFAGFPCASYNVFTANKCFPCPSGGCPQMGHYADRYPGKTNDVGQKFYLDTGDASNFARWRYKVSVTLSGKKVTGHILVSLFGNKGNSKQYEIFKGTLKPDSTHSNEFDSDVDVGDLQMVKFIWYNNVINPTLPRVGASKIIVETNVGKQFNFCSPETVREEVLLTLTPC

[3] = people taking Reductil, background statement; cited from earlier work
[4] = during 8-week administration in feed

CCCCCCCCCCC[C@@H](C[C@@H]1OC(=O)[C@H]1CCCCCC)OC(=O)[C@H](CC(C)C)NC=O [Xenical, Orlistat]
hardness of excrement ([1]; 8-week administration in feed): very soft excrement | appearance of hair during administration [1, 4]: oily and lumpy hair | diarrhea (side effect) [1, 4]: serious diarrhea | inhibition of absorption of dietary fat [2]: approximately 30%

CC(C)CC(N(C)C)C1(c2ccc(Cl)cc2)CCC1 (centres unmarked) [Reductil, Sibutramine]
higher number of cardiovascular events versus a control group [3]: 16%
